Series [1] has as its target T1, COX-2 (Homo sapiens, UniProt P35354).
T1 sequence (P35354 18-604): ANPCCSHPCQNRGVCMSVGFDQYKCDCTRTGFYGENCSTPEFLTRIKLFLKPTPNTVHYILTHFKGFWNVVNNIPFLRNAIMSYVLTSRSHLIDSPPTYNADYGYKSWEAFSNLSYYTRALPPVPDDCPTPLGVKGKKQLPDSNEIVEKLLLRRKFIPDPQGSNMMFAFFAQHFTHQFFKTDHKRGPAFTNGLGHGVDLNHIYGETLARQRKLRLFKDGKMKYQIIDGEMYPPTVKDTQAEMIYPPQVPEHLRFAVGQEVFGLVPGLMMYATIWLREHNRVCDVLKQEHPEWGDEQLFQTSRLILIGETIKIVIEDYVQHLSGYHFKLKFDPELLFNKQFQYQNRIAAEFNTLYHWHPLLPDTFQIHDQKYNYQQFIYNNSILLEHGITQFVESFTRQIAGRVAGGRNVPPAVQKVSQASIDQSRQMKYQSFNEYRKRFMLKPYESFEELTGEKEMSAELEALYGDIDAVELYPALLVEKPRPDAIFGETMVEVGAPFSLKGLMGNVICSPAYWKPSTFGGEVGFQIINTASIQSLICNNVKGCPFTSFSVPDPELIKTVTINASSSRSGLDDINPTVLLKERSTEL
The series is described as follows: Cyclooxygenase-2. The following applies: for IC50: IC50 COX-2, ±SEM, triplicate. It counts as biochemical.

Series [2] has as its target COX-1 (Homo sapiens, UniProt P23219). As to the kind of experiment: Cyclooxygenase-1. Type of series: biochemical. As to conditions: IC50 COX-1, ±SEM, triplicate.
Series [3] concerns Dopaminergic Receptor. The series is described as follows: Involvement of dopaminergic receptors. It counts as in vivo, mice.
For series [4], the system named is Balb C mice. The series is described as follows: Acetic acid induced writhing test. The following applies: 50 mg/kg. Type of series: in vivo. (In general: Writhing tests count abdominal constrictions after an irritant is injected.)
Series [5] has as its system Balb C mice. As to the kind of experiment: Formalin-induced paw-licking test.
The subject of series [6] is Balb C mice. As to the kind of experiment: Tail immersion. Type of series: in vivo.
The subject of series [7] is Alpha-2 Adrenergic Receptor. As to the kind of experiment: Involvement of adrenergic receptors. It counts as in vivo, mice.
For series [8], the system named is Balb C mice. The series is described as follows: Acute toxicity study. It counts as in vivo. As to conditions: I/P, highest tested dose 150 mg/kg, 24 hours.
Setting [9] is: haloperidol alone, 1 mg/kg i.p.
Where [10] appears, read: 5 mg/kg, with naloxone (N, 2 mg/kg s.c.).
Where [11] appears, read: 10 mg/kg, with naloxone (N, 2 mg/kg s.c.).
The mark [12] stands for this setting: 25 mg/kg, with naloxone (N, 2 mg/kg s.c.).
The mark [13] stands for this setting: 50 mg/kg, with naloxone (N, 2 mg/kg s.c.).
The mark [14] stands for this setting: 25 mg/kg after yohimbine (YH, 1 mg/kg).
Setting [15] is: 50 mg/kg after yohimbine (YH, 1 mg/kg).
Setting [16] is: 25 mg/kg after haloperidol (HL, 1 mg/kg).
The mark [17] stands for this setting: 50 mg/kg after haloperidol (HL, 1 mg/kg).

“And” between values parts separate entries of the source, which are not always exact repeats. Identical values can stand only once.

Sequence of COX-1 (P23219 24-599): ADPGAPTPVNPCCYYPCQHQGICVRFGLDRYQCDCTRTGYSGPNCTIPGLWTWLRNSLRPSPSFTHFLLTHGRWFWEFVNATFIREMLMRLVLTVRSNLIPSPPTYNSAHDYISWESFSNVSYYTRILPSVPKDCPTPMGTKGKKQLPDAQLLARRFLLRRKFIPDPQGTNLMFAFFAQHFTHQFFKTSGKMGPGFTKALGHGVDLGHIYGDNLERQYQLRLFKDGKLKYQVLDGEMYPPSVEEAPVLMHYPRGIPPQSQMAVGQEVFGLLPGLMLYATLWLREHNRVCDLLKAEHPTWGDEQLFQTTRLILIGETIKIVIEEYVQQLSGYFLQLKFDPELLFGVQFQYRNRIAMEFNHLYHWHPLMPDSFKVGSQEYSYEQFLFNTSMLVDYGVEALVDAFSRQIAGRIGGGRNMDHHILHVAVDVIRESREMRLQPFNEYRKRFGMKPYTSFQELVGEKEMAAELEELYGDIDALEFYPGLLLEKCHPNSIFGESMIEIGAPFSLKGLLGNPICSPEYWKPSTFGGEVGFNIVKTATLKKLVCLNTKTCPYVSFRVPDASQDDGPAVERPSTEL

Take `CC(=O)CC(C[N+](=O)[O-])c1ccccc1` (stereo not shown) [Compound 9, 5-nitro-4-phenylpentan-2-one]: the “Selectivity Index (SI) (IC50 COX-1/IC50 COX-2)” value in series [1] worked out at 0.91. Besides, the IC50 is 73.5 ± 1.38 µM in series [1] and 67.6 ± 1.02 µM in series [2].
Regarding `O=C(CCCN1CCC(O)(c2ccc(Cl)cc2)CC1)c1ccc(F)cc1` [Haloperidol, haloperidol, reference compound], in series [3] (setting [9]), the “% Activity” value came to 17.50±1.28% and the Writhing was determined as 55.78±2.02.
On to `O=C(O)Cc1ccccc1Nc1c(Cl)cccc1Cl` [diclofenac sodium], for which the Inhibition of writhing came out at 85% in series [4] (n=6) and 84.96% in series [4] (n=6, listed as diclofenac).
As to `CN1CC[C@]23c4c5ccc(O)c4O[C@H]2[C@@H](O)C=C[C@H]3[C@H]1C5` [Morphine, morphine, reference compound], the “Inhibition (%) 1st Phase” value in series [5] (5 mg/kg) is listed as 87.16±3.32%; in series [5] (setting [10]), 2.68±1.20%. In addition, the “Inhibition (%) 2nd Phase” value in series [5] (5 mg/kg) turned out to be 96.34±0.66%; in series [5] (setting [10]) it was 1.44±0.28%. The entries for the “Licking Time 1st Phase” value in series [5] (5 mg/kg) and in series [5] (setting [10]) were 6.50 ± 1.153 s and 49.29 ± 1.52 s, respectively. The figures for the “Licking Time 2nd Phase” value in series [5] (5 mg/kg) and in series [5] (setting [10]) were 2.70 ± 1.340 s and 72.83 ± 1.152 s, respectively. The “Tail flick Response (%)” value in series [6] (5 mg/kg, 15 Minutes) is recorded as 48.1%; in series [6] (5 mg/kg, 30 Minutes), 56.1%; in series [6] (5 mg/kg, 45 Minutes), 75%; in series [6] (5 mg/kg, 60 Minutes), 85%; in series [6] (5 mg/kg, 75 Minutes), 80.2%; in series [6] (5 mg/kg, 75 Minutes, listed as morphine), 80.2%. The “Tail flick Response (%)” value in series [6] (5 mg/kg, 90 Minutes) came to 78.4%; in series [6] (5 mg/kg, 90 Minutes, listed as morphine), 78.4%.
On to `COc1ccc2c(c1)c(CC(=O)O)c(C)n2C(=O)c1ccc(Cl)cc1` [Indomethacin, indomethacin, reference compound], for which, in series [5] (10 mg/kg), the “Inhibition (%) 1st Phase” value amounted to 23.69±3.24%, the “Inhibition (%) 2nd Phase” value worked out at 74.34±2.86%, the “Licking Time 1st Phase” value worked out at 38.65 ± 1.37 s and the “Licking Time 2nd Phase” value is 18.96 ± 1.342 s. For the same compound, in series [5] (setting [11]), the “Inhibition (%) 1st Phase” value turned out to be 11.64±1.20%, the “Licking Time 1st Phase” value was 44.75 ± 1.76 s and the “Licking Time 2nd Phase” value came out at 25.00 ± 1.249 s.
Consider `COC(=O)[C@@H]1[C@H]2C[C@H]3c4[nH]c5ccccc5c4CCN3C[C@@H]2CC[C@@H]1O` [Yohimbine, yohimbine, reference compound], for which, in series [7] (yohimbine alone, 1 mg/kg i.p.), the “% Activity” value is listed as 15.08±1.15% and the Writhing was determined as 57.4±2.02.
Turning to `CCC[C@](C)(C=O)[C@@H]1CC(=O)N(c2ccccc2)C1=O` [Compound 4, (S)-2-((S)-2,5-dioxo-1-phenylpyrrolidin-3-yl)-2-methylpentanal], the “Selectivity Index (SI) (IC50 COX-1/IC50 COX-2)” value in series [1] is listed as 1.94. For the same compound, the IC50 in series [1] is 65 µM and 65.9 µM; in series [2], 128 µM. Besides, the “Acute toxicity (adverse effect, change in body weight, mortality)” value in series [8] is “safe”. In series [4] (n=6), this compound returned an Inhibition of writhing of 52.2%. Further, the “Inhibition (%) 1st Phase” value in series [5] (25 mg/kg) came out at 22.30±0.85%; in series [5] (setting [12]), 17.47±1.89%; in series [5] (50 mg/kg), 36.16±4.47%; in series [5] (setting [13]), 23.69±1.44%. Moreover, the “Inhibition (%) 2nd Phase” value in series [5] (25 mg/kg) is given as 38.94±2.88%; in series [5] (setting [12]), 33.76±2.53%; in series [5] (50 mg/kg), 50.66±3.84%; in series [5] (setting [13]) it was 42.15±1.43%. The “Licking Time 1st Phase” value in series [5] (25 mg/kg) was 39.35 ± 1.231 s; in series [5] (setting [12]), 41.80 ± 1.33 s; in series [5] (50 mg/kg) it was 32.33 ± 1.356 s; in series [5] (setting [13]), 38.65 ± 1.25 s. In addition, the “Licking Time 2nd Phase” value in series [5] (25 mg/kg) came to 45.12 ± 1.145 s; in series [5] (setting [12]), 48.95 ± 1.40 s; in series [5] (50 mg/kg), 36.45 ± 1.232 s; in series [5] (setting [13]), 42.75 ± 1.65 s. Further, the “% Activity” value in series [7] (setting [14]) is 15.58±1.44%; in series [7] (setting [15]) it was 16.08±1.08%; in series [3] (setting [16]), 16.52±1.25%; in series [3] (setting [17]) it was 16.70±1.16%. Moreover, the Writhing was 57.09±2.20 in series [7] (setting [14]), 56.73±1.05 in series [7] (setting [15]), 56.42±1.05 in series [3] (setting [16]) and 56.23±1.05 in series [3] (setting [17]). In addition, the “Tail flick Response (%)” value in series [6] (25 mg/kg i.p., 15 Minutes) came out at 11.1%; in series [6] (25 mg/kg i.p., 30 Minutes), 14.8%; in series [6] (25 mg/kg i.p., 45 Minutes), 16.3%; in series [6] (25 mg/kg i.p., 60 Minutes), 18.9%; in series [6] (25 mg/kg i.p., 75 Minutes), 29.5%; in series [6] (25 mg/kg i.p., 75 Minutes, listed as Comp 4) it was 29.5%. In addition, the “Tail flick Response (%)” value worked out at 19.8% in series [6] (25 mg/kg i.p., 90 Minutes); 14.8% in series [6] (50 mg/kg i.p., 15 Minutes); 22.7% in series [6] (50 mg/kg i.p., 30 Minutes); 33.7% in series [6] (50 mg/kg i.p., 45 Minutes); 42.1% in series [6] (50 mg/kg i.p., 60 Minutes); 53.4% in series [6] (50 mg/kg i.p., 75 Minutes). Besides, the “Tail flick Response (%)” value in series [6] (50 mg/kg i.p., 75 Minutes, listed as Comp 4) was determined as 53.4%; in series [6] (50 mg/kg i.p., 90 Minutes), 46.2%; in series [6] (50 mg/kg i.p., 90 Minutes, listed as Comp 4), 46.2%.

Broadly, the IC50 is the point on the concentration scale where inhibition reaches its midpoint. A high value points to weaker potency in that assay.
